# Test results reported in patent publication US20050197350A1, “Novel quinoline, tetrahydroquinazoline, and pyrimidine derivatives and methods of treatment related to the use thereof” (TAISHO PHARMACEUTICAL CO., LTD., priority 2003, published 2005).
# Test system: MCH receptors
# Assay: MCH receptor activity class (method not given)
# Conditions: class by percent of control at 10^-7 M or IC50
row,SMILES,class
1,CSc1sc(C(=O)N[C@H]2CC[C@@H](Nc3nccc(N(C)C)n3)CC2)c(I)c1S(=O)(=O)C(C)C [compound 905],2 (Class 2: The value of percent of control at 10^−7 M was from 40% to 60% or the value of IC′50 was from 50 nM to 200 nM.)
2,"CN(C)c1ccnc(N[C@H]2CC[C@@H](NC(=O)c3csc([N+](=O)[O-])c3)CC2)n1 [compound 906, N-(cis-4-{[4-(dimethylamino)pyrimidin-2-yl]amino}cyclohexyl)-5-nitrothiophene-3-carboxamide]",1 (Class 1: The value of percent of control at 10^−7 M was less than 40% or the value of IC50 was less than 50 nM.)
3,"CN(C)c1ccnc(N[C@H]2CC[C@@H](NC(=O)c3cc([N+](=O)[O-])cn3C)CC2)n1 [compound 907, N-(cis-4-{[4-(dimethylamino)pyrimidin-2-yl]amino}cyclohexyl)-1-methyl-4-nitro-1H-pyrrole-2-carboxamide]",1 (Class 1: The value of percent of control at 10^−7 M was less than 40% or the value of IC50 was less than 50 nM.)
4,CN(C)c1ccnc(N[C@H]2CC[C@@H](NC(=O)c3cn(S(=O)(=O)c4ccccc4)c4ccccc34)CC2)n1 [compound 908],3 (Class 3 The value of percent of control at 10^−7 M was more than 60% or the value of IC50 was more than 200 nM.)
5,"CN(C)c1ccnc(N[C@H]2CC[C@@H](NC(=O)c3ccc([N+](=O)[O-])cc3)CC2)n1 [compound 909, N-(cis-4-{[4-(dimethylamino)pyrimidin-2-yl]amino}cyclohexyl)-4-nitrobenzamide]",2 (Class 2: The value of percent of control at 10^−7 M was from 40% to 60% or the value of IC′50 was from 50 nM to 200 nM.)
6,COc1cc([N+](=O)[O-])ccc1C(=O)N[C@H]1CC[C@@H](Nc2nccc(N(C)C)n2)CC1 [compound 910],3 (Class 3 The value of percent of control at 10^−7 M was more than 60% or the value of IC50 was more than 200 nM.)
7,CN(C)c1ccnc(N[C@H]2CC[C@@H](NC(=O)c3ccc(C(F)(F)F)c(F)c3)CC2)n1 [compound 911],3 (Class 3 The value of percent of control at 10^−7 M was more than 60% or the value of IC50 was more than 200 nM.)
8,CN(C)c1ccnc(N[C@H]2CC[C@@H](NC(=O)c3ccc([N+](=O)[O-])cc3F)CC2)n1 [compound 912],3 (Class 3 The value of percent of control at 10^−7 M was more than 60% or the value of IC50 was more than 200 nM.)
9,"Cc1cc(C(=O)N[C@H]2CC[C@@H](Nc3nccc(N(C)C)n3)CC2)cc(C)c1[N+](=O)[O-] [compound 913, N-(cis-4-{[4-(dimethylamino)pyrimidin-2-yl]amino}cyclohexyl)-3,5-dimethyl-4-nitrobenzamide]",2 (Class 2: The value of percent of control at 10^−7 M was from 40% to 60% or the value of IC′50 was from 50 nM to 200 nM.)
10,"Cc1cc(C)c(C(=O)C(=O)N[C@H]2CC[C@@H](Nc3nccc(N(C)C)n3)CC2)c(C)c1 [compound 914, N-(cis-4-{[4-(dimethylamino)pyrimidin-2-yl]amino}cyclohexyl)-2-mesityl-2-oxoacetamide]",2 (Class 2: The value of percent of control at 10^−7 M was from 40% to 60% or the value of IC′50 was from 50 nM to 200 nM.)
11,CN(C)c1ccnc(N[C@H]2CC[C@@H](NC(=O)c3cnc4ccccc4c3)CC2)n1 [compound 915],3 (Class 3 The value of percent of control at 10^−7 M was more than 60% or the value of IC50 was more than 200 nM.)
12,CN(C)c1ccnc(N[C@H]2CC[C@@H](NC(=O)c3ccc4ncsc4c3)CC2)n1 [compound 918],3 (Class 3 The value of percent of control at 10^−7 M was more than 60% or the value of IC50 was more than 200 nM.)
13,CN(C)c1ccnc(N[C@H]2CC[C@@H](NC(=O)c3cc(Cl)ccc3O)CC2)n1 [compound 919],3 (Class 3 The value of percent of control at 10^−7 M was more than 60% or the value of IC50 was more than 200 nM.)
14,CSc1ccc(Cl)c(C(=O)N[C@H]2CC[C@@H](Nc3nccc(N(C)C)n3)CC2)c1 [compound 920],3 (Class 3 The value of percent of control at 10^−7 M was more than 60% or the value of IC50 was more than 200 nM.)
15,COc1cccc2cc(C(=O)N[C@H]3CC[C@@H](Nc4nccc(N(C)C)n4)CC3)oc12 [compound 921],3 (Class 3 The value of percent of control at 10^−7 M was more than 60% or the value of IC50 was more than 200 nM.)
16,Cc1cccc(C(=O)N[C@H]2CC[C@@H](Nc3nccc(N(C)C)n3)CC2)c1N [compound 922],3 (Class 3 The value of percent of control at 10^−7 M was more than 60% or the value of IC50 was more than 200 nM.)
17,C=CCSc1ncccc1C(=O)N[C@H]1CC[C@@H](Nc2nccc(N(C)C)n2)CC1 [compound 923],3 (Class 3 The value of percent of control at 10^−7 M was more than 60% or the value of IC50 was more than 200 nM.)
18,CN(C)c1ccnc(N[C@H]2CC[C@@H](NC(=O)c3cc(C(C)(C)C)c(O)c(C(C)(C)C)c3)CC2)n1 [compound 924],1 (Class 1: The value of percent of control at 10^−7 M was less than 40% or the value of IC50 was less than 50 nM.)
19,CN(C)c1ccnc(N[C@H]2CC[C@@H](CNC(=O)c3ccc(Br)s3)CC2)n1 [compound 925],3 (Class 3 The value of percent of control at 10^−7 M was more than 60% or the value of IC50 was more than 200 nM.)

row,SMILES,class
1,"CN(C)c1ccnc(N[C@H]2CC[C@@H](CNC(=O)Cc3c(Cl)ccc(Cl)c3Cl)CC2)n1 [compound 926, N-[(cis-4-{[4-(dimethylamino)pyrimidin-2-yl]amino}cyclohexyl)methyl]-2-(2,3,6-trichlorophenyl)acetamide]",1 (Class 1: The value of percent of control at 10^−7 M was less than 40% or the value of IC50 was less than 50 nM.)
2,CN(C)c1ccnc(N[C@H]2CC[C@@H](CNC(=O)Cc3ccc(F)cc3Cl)CC2)n1 [compound 927],3 (Class 3 The value of percent of control at 10^−7 M was more than 60% or the value of IC50 was more than 200 nM.)
3,CN(C)c1ccnc(N[C@H]2CC[C@@H](CNC(=O)c3ccc(-c4ccc(Cl)cc4[N+](=O)[O-])o3)CC2)n1 [compound 928],3 (Class 3 The value of percent of control at 10^−7 M was more than 60% or the value of IC50 was more than 200 nM.)
4,CN(C)c1ccnc(N[C@H]2CC[C@@H](CNC(=O)c3ccc(Cl)s3)CC2)n1 [compound 929],3 (Class 3 The value of percent of control at 10^−7 M was more than 60% or the value of IC50 was more than 200 nM.)
5,CN(C)c1ccnc(N[C@H]2CC[C@@H](CNC(=O)CCc3ccccc3O)CC2)n1 [compound 931],3 (Class 3 The value of percent of control at 10^−7 M was more than 60% or the value of IC50 was more than 200 nM.)
6,"CN(C)c1ccnc(N[C@H]2CC[C@@H](CNC(=O)c3ccc(I)o3)CC2)n1 [compound 932, N-[(cis-4-{[4-(dimethylamino)pyrimidin-2-yl]amino}cyclohexyl)methyl]-5-iodo-2-furamide]",2 (Class 2: The value of percent of control at 10^−7 M was from 40% to 60% or the value of IC′50 was from 50 nM to 200 nM.)
7,COc1ccc2[nH]c(C)c(CC(=O)NC[C@H]3CC[C@@H](Nc4nccc(N(C)C)n4)CC3)c2c1 [compound 933],3 (Class 3 The value of percent of control at 10^−7 M was more than 60% or the value of IC50 was more than 200 nM.)
8,CN(C)c1ccnc(N[C@H]2CC[C@@H](CNC(=O)/C=C/c3cccc([N+](=O)[O-])c3)CC2)n1 [compound 934],1 (Class 1: The value of percent of control at 10^−7 M was less than 40% or the value of IC50 was less than 50 nM.)
9,CN(C)c1ccnc(N[C@H]2CC[C@@H](CNC(=O)c3ccccc3Cc3ccccc3)CC2)n1 [compound 936],2 (Class 2: The value of percent of control at 10^−7 M was from 40% to 60% or the value of IC′50 was from 50 nM to 200 nM.)
10,"CN(C)c1ccnc(N[C@H]2CC[C@@H](CNC(=O)C(c3ccc(Cl)cc3)c3ccc(Cl)cc3)CC2)n1 [compound 937, 2,2-bis(4-chlorophenyl)-N-[(cis-4-{[4-(dimethylamino)pyrimidin-2-yl]amino}cyclohexyl)methyl]acetamide]",1 (Class 1: The value of percent of control at 10^−7 M was less than 40% or the value of IC50 was less than 50 nM.)
11,Cc1ccc(-c2ccc(C(=O)NC[C@H]3CC[C@@H](Nc4nccc(N(C)C)n4)CC3)o2)c([N+](=O)[O-])c1 [compound 938],3 (Class 3 The value of percent of control at 10^−7 M was more than 60% or the value of IC50 was more than 200 nM.)
12,CN(C)c1ccnc(N[C@H]2CC[C@@H](CNC(=O)c3ccc([N+](=O)[O-])s3)CC2)n1 [compound 939],3 (Class 3 The value of percent of control at 10^−7 M was more than 60% or the value of IC50 was more than 200 nM.)
13,"Cc1cc(C(=O)NC[C@H]2CC[C@@H](Nc3nccc(N(C)C)n3)CC2)ccc1[N+](=O)[O-] [compound 940, N-[(cis-4-{[4-(dimethylamino)pyrimidin-2-yl]amino}cyclohexyl)methyl]-3-methyl-4-nitrobenzamide]",1 (Class 1: The value of percent of control at 10^−7 M was less than 40% or the value of IC50 was less than 50 nM.)
14,"COc1cc(C(=O)NC[C@H]2CC[C@@H](Nc3nccc(N(C)C)n3)CC2)ccc1[N+](=O)[O-] [compound 941, N-[(cis-4-{[4-(dimethylamino)pyrimidin-2-yl]amino}cyclohexyl)methyl]-3-methoxy-4-nitrobenzamide]",1 (Class 1: The value of percent of control at 10^−7 M was less than 40% or the value of IC50 was less than 50 nM.)
15,CN(C)c1ccnc(N[C@H]2CC[C@@H](CNC(=O)c3cn(Cc4ccccc4)c4ccccc34)CC2)n1 [compound 942],3 (Class 3 The value of percent of control at 10^−7 M was more than 60% or the value of IC50 was more than 200 nM.)
16,CN(C)c1ccnc(N[C@H]2CC[C@@H](CNC(=O)CC3=CCCCC3)CC2)n1 [compound 943],3 (Class 3 The value of percent of control at 10^−7 M was more than 60% or the value of IC50 was more than 200 nM.)
17,CN(C)c1ccnc(N[C@H]2CC[C@@H](CNC(=O)Cc3ccccc3OC(F)(F)F)CC2)n1 [compound 945],1 (Class 1: The value of percent of control at 10^−7 M was less than 40% or the value of IC50 was less than 50 nM.)
18,Cc1cc(C(=O)NC[C@H]2CC[C@@H](Nc3nccc(N(C)C)n3)CC2)cc(C)c1OCc1ccccc1 [compound 946],3 (Class 3 The value of percent of control at 10^−7 M was more than 60% or the value of IC50 was more than 200 nM.)
